Source: patent publication US5063152A, “Synthetic peptidic substrate for determination of trypsin and α1” (Nitto Boseki Co., Ltd., priority 1985, dated 1991)
Values joined by “and” are separate entries in the source; they are usually repeats but may differ in a detail not shown here. Equal values may be shown once. Square brackets hold non-standard residues; d marks the D form. Peptide text beside a SMILES is read from it. * marks the point of attachment. pNA = O=[N+]([O-])c1ccc(N*)cc1; Cbz = O=C(OCc1ccccc1)*

Assays:
Plasmin (PL) = molecular target: T1, Plasmin (PL) (Homo sapiens, UniProt P00747); experiment: substrate specificity test, reaction with plasmin; format: biochemical; details: for measured optical density (absorbance), plasmin: initial substrate concentration 2 mmol/l, 37° C., 5 minutes; for relative reactivity in the case of plasmin: Table 1, PS-1188N = 100; for relative reactivity of substrate with plasmin: reactivity of PS-1188N taken as 100, initial substrate concentration 2 mmol
T1 construct: Plasmin Human; purchased Green Cross Corp
Description: (§1) The synthetic peptides obtained in Examples 1 and 2 were subjected to a substrate specificity test by reacting with various enzymes under the following conditions.
(§2) 1) substrate solution: 10 mmol/l (concentration)
(§3) 2) buffer solution: tris-HCl buffer
(§4) Concentrations of NaCl, and CaCl2 and pH (at 25° C.) were adjusted as shown in Table 2 depending on enzymes to be reacted: […]
(§5) 4) Reaction stopper solution in the case of pNA: 10% acetic acid
(§6) 5) Color producing reagent for CHA: sodium pentacyanoamine ferroate
(§7) The buffer solution in an amount of 0.3 ml and 0.1 ml of an enzyme solution were placed in a test tube made of hard glass treated with silicon or a test tube made of a plastic (polystyrene) and preheated for 5 minutes in a constant temperature bath maintained at 37° C. Then, 0.1 ml of a substrate solution was added to the test tube and incubated at 37° C. for just 5 minutes. Subsequently, 2.0 ml of the reaction stopper solution (in the case of pNA) or the color producing reagent (in the case of CHA) was added to the reaction solution to terminate the enzymatic reaction. After allowing to stand at 37° C. for 10 minutes, absorbance (optical density) at 405 nm (in the case of pNA) or at 700 nm (in the case of coupled CHA) was measured. The initial substrate concentration was 2 mmol/l.

Factor Xa (FXa) = molecular target: T2, Factor Xa (FXa) (Bos taurus, UniProt P00743); experiment: substrate specificity test, reaction with factor Xa; format: biochemical, Bovine; details: for measured optical density (absorbance), factor Xa: initial substrate concentration 2 mmol/l, 37° C., 5 minutes; for relative reactivity in the case of factor Xa: Table 1, PS-1188N = 100; for relative reactivity of substrate with factor Xa: reactivity of PS-1188N taken as 100, initial substrate concentration 2 mmol
T2 construct: Factor Xa; purchased Sigma Chem. Co
Description: as §1, §2, §3, §4, §5, §6, §7

Urokinase (UK) = molecular target: T3, Urokinase (UK) (Homo sapiens, UniProt P00749); experiment: substrate specificity test, reaction with urokinase; format: biochemical; details: initial substrate concentration 2 mmol/l, 37° C., 5 minutes
T3 construct: purchased Mochida Pharmaceutical Co., Ltd
Description: as §1, §2, §3, §4, §5, §6, §7

Kallikrein (KL) = molecular target: T4, Kallikrein (KL) (Sus scrofa, UniProt P00752); experiment: substrate specificity test, reaction with kallikrein; format: biochemical, Porcine; details: for measured optical density (absorbance), kallikrein: initial substrate concentration 2 mmol/l, 37° C., 5 minutes; for relative reactivity in the case of kallikrein: Table 1, PS-1188N = 100; for relative reactivity of substrate with kallikrein: reactivity of PS-1188N taken as 100, initial substrate concentration 2 mmol
T4 construct: purchased Sigma Chem. Co
Description: as §1, §2, §3, §4, §5, §6, §7

Trypsin (Try) = molecular target: T5, Trypsin (Try) (Bos taurus, UniProt P00760); experiment: substrate specificity test, reaction with trypsin; format: biochemical, Bovine; details: for measured optical density (absorbance), trypsin: initial substrate concentration 2 mmol/l, 37° C., 5 minutes; for relative reactivity of substrate with trypsin: reactivity of PS-1188N taken as 100, initial substrate concentration 2 mmol
T5 construct: purchased Worthington
T5 sequence (P00760 24-246): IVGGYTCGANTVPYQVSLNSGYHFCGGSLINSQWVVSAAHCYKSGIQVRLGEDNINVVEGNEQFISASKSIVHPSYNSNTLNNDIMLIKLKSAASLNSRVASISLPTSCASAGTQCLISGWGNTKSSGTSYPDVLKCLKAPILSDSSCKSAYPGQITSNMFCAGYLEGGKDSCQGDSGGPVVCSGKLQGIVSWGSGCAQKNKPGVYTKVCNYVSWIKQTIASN
Description: as §1, §2, §3, §4, §5, §6, §7

Thrombin (TH) = molecular target: T6, Thrombin (TH) (Bos taurus, UniProt P00735); experiment: substrate specificity test, reaction with thrombin; format: biochemical, Bovine; details: for measured optical density (absorbance), thrombin: initial substrate concentration 2 mmol/l, 37° C., 5 minutes; for relative reactivity in the case of thrombin: Table 1, PS-1188N = 100; for relative reactivity of substrate with thrombin: reactivity of PS-1188N taken as 100, initial substrate concentration 2 mmol
T6 construct: Thrombin; purchased Mochida Pharmaceutical Co., Ltd
Description: as §1, §2, §3, §4, §5, §6, §7

T4 sequence (P00752 8-246): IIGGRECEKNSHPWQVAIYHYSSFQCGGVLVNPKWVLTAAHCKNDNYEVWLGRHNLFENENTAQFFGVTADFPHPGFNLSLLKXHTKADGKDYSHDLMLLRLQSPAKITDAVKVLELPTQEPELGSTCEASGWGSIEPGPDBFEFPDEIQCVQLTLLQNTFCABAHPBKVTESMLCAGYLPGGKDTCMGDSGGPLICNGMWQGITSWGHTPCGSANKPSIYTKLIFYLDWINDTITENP
T2 sequence (P00743 234-492 limits assumed): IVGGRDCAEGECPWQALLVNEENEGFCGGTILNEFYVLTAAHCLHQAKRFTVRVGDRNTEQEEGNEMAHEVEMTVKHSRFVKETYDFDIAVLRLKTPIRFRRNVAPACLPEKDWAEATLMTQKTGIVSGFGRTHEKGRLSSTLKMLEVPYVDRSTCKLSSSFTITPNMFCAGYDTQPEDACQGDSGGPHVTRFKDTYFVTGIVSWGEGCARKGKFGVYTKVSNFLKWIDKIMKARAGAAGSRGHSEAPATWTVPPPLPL
T2 sequence (P00743 41-180 partner limits assumed): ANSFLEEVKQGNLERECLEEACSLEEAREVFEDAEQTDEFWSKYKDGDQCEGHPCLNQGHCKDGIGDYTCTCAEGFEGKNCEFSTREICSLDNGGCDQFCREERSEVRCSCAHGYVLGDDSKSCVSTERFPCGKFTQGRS
T1 sequence (P00747 581-810 limits assumed): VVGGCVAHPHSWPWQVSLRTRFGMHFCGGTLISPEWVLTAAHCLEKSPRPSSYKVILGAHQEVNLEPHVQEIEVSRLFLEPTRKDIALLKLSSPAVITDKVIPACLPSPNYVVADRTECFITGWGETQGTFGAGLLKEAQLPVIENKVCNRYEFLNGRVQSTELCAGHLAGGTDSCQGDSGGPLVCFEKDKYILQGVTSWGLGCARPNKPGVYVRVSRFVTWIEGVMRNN
T1 sequence (P00747 97-580 partner limits assumed): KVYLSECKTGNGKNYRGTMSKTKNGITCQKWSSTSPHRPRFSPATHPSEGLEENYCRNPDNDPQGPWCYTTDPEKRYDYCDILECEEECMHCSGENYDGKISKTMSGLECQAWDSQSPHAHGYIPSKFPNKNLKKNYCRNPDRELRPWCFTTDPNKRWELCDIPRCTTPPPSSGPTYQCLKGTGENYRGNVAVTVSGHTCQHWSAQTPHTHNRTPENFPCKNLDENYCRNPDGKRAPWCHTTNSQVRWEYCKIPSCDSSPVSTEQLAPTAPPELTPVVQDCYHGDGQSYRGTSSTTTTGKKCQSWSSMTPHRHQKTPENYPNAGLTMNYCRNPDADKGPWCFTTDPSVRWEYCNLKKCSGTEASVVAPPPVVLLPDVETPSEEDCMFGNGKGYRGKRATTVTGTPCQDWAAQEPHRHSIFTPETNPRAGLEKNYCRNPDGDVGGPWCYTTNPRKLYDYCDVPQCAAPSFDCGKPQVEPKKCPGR

relative reactivity in the case of plasmin (Plasmin (PL)) [%] | relative reactivity of substrate with plasmin (Plasmin (PL)) | relative reactivity in the case of factor Xa (Factor Xa (FXa)) [%] | relative reactivity of substrate with factor Xa (Factor Xa (FXa)) | relative reactivity in the case of kallikrein (Kallikrein (KL)) [%] | relative reactivity of substrate with kallikrein (Kallikrein (KL)) | relative reactivity of substrate with trypsin (Trypsin (Try)) | relative reactivity in the case of thrombin (Thrombin (TH)) [%] | relative reactivity of substrate with thrombin (Thrombin (TH)) | measured optical density (absorbance), plasmin (Plasmin (PL); 405 nm (pNA)) | measured optical density (absorbance), factor Xa (Factor Xa (FXa); 405 nm (pNA)) | measured optical density (absorbance), urokinase (Urokinase (UK); 405 nm (pNA)) | measured optical density (absorbance), kallikrein (Kallikrein (KL); 405 nm (pNA)) | measured optical density (absorbance), trypsin (Trypsin (Try); 405 nm (pNA)) | measured optical density (absorbance), thrombin (Thrombin (TH); 405 nm (pNA)) | SMILES | further results
3 | 3 | 37 | 37 | 2 | 2 | 86 | 0 | 0 | – | – | – | – | – | – | CC(C)C[C@H](NC(=O)[C@H]1CCCN1)C(=O)N[C@@H](CCCCN)C(=O)Nc1ccc(O)c(C(=O)O)c1 [PS-1188, H-D -Pro-Leu-Lys-CHA] | measured optical density (absorbance), plasmin (Plasmin (PL); 700 nm (coupled CHA)): 0.008; measured optical density (absorbance), factor Xa (Factor Xa (FXa); 700 nm (coupled CHA)): 0.006; measured optical density (absorbance), urokinase (Urokinase (UK); 700 nm (coupled CHA)): 0.001; measured optical density (absorbance), kallikrein (Kallikrein (KL); 700 nm (coupled CHA)): 0.002; measured optical density (absorbance), trypsin (Trypsin (Try); 700 nm (coupled CHA)): 0.314; measured optical density (absorbance), thrombin (Thrombin (TH); 700 nm (coupled CHA)): 0.0
43 | 43 | 2114 | 2114 | 74 | 74 | 1626 | 2200 | 2200 | 0.057 | 0.148 | 0.112 | 0.029 | 2.601 | 0.066 | CC(C)[C@H](NC(=O)OCc1ccccc1)C(=O)NCC(=O)N[C@@H](CCCNC(=N)N)C(=O)Nc1ccc([N+](=O)[O-])cc1 [CHR-TRY, Z-Val-Gly-Arg-pNA] (Cbz-Val-Gly-Arg-pNA) | –
– | 100 | – | 100 | – | 100 | 100 | – | 100 | 0.134 | 0.007 | 0.0 | 0.032 and 0.039 | 0.160 | 0.003 | CC(C)C[C@H](NC(=O)[C@H]1CCCN1)C(=O)N[C@@H](CCCCN)C(=O)Nc1ccc([N+](=O)[O-])cc1 [PS-1188N, H-D -Pro-Leu-Lys-pNA] (H-[dP]-Leu-Lys-pNA) | –
